# In ChEMBL document CHEMBL5291721, “A preclinical secondary pharmacology resource illuminates target-adverse drug reaction associations of marketed drugs” (Nat Commun, 2023):
# Experiments:
# [1] = target: T1, Amine oxidase [flavin-containing] A (Homo sapiens, UniProt P21397); type: functional
# T1 sequence (P21397 whole entry): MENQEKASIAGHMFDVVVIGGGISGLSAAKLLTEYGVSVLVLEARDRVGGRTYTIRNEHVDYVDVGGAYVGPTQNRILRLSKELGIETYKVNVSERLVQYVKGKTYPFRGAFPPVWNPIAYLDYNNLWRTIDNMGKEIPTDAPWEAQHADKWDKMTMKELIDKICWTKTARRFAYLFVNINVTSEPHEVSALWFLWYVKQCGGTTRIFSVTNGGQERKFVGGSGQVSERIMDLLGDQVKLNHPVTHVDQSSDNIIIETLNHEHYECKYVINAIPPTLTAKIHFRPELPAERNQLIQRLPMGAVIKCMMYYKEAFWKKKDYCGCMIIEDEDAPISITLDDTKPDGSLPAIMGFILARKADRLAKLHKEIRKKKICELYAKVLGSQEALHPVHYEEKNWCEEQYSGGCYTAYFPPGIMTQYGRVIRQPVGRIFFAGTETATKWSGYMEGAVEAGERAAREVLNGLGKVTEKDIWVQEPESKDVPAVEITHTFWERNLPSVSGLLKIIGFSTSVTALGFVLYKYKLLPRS
# Glucocorticoid receptor = target: T2, Glucocorticoid receptor (Homo sapiens, UniProt P04150)
# T2 sequence (P04150 whole entry): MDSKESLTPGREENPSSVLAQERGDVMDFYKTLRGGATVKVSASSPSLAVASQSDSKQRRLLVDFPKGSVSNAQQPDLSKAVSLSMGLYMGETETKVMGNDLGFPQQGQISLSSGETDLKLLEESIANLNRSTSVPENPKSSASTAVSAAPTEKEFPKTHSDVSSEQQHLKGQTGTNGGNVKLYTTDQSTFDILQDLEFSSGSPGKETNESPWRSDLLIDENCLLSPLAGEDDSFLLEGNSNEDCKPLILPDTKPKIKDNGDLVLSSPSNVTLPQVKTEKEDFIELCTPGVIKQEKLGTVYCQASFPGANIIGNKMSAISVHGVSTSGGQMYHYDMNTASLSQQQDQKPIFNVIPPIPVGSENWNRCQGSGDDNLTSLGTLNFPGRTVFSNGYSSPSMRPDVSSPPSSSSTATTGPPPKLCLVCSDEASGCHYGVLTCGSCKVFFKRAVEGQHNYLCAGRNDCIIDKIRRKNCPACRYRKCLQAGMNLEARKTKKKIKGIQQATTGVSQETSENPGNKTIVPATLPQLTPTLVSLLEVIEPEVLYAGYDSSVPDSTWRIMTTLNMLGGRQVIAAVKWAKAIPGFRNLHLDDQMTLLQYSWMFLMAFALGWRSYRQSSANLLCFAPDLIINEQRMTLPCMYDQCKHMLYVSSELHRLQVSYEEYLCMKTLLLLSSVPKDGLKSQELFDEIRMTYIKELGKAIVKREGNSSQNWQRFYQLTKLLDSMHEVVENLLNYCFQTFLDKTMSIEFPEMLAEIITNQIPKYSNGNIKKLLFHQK
# Prothrombin = Prothrombin (Homo sapiens, UniProt P00734); type: functional
# Adenosine receptor A3 = target: T3, Adenosine receptor A3 (Homo sapiens, UniProt P0DMS8)
# T3 sequence (P0DMS8 whole entry): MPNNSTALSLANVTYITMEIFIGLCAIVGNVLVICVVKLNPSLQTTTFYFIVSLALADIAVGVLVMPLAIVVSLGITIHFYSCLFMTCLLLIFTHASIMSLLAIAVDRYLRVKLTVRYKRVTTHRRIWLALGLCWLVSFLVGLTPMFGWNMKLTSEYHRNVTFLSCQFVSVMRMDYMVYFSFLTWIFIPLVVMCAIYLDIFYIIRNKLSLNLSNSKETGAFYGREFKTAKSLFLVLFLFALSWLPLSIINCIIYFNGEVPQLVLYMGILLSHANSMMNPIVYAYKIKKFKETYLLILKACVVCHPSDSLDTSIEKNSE
# [2] = target: Sodium-dependent noradrenaline transporter (Homo sapiens, UniProt P23975)
# Mu-type opioid receptor = Mu-type opioid receptor (Homo sapiens, UniProt P35372)
# [3] = target: T4, Alpha-1A adrenergic receptor (Homo sapiens, UniProt P35348); type: functional, cell-based
# T4 sequence (P35348 whole entry): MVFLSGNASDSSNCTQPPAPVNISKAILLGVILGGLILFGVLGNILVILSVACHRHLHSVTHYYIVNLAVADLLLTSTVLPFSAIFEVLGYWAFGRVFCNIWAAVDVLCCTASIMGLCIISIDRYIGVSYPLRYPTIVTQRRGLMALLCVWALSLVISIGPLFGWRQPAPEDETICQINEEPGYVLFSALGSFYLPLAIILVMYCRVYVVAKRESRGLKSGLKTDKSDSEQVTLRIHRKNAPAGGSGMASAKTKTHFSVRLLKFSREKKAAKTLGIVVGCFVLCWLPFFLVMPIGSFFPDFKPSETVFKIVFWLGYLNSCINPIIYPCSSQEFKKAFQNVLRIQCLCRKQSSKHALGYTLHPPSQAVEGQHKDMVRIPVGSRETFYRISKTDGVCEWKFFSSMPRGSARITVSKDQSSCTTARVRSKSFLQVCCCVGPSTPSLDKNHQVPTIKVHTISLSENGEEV
# Note: assay procedure not described here.
# Chain of Sodium-dependent noradrenaline transporter (P23975 whole entry): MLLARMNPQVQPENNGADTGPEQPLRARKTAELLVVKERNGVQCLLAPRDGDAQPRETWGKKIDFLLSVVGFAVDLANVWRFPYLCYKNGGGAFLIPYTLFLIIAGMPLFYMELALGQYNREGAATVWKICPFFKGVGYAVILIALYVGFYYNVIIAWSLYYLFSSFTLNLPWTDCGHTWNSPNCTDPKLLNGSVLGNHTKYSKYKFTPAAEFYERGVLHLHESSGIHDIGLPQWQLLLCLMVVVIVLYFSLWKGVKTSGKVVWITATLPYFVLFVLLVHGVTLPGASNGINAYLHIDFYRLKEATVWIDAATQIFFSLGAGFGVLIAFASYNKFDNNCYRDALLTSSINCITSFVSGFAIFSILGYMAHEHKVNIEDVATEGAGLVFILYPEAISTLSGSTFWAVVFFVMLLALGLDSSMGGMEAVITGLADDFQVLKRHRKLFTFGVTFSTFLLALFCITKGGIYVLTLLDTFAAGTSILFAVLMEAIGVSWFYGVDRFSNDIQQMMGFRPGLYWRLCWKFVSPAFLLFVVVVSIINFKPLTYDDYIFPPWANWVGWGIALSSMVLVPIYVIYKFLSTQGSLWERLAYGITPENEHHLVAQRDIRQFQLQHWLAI
# Chain of Mu-type opioid receptor (P35372 whole entry): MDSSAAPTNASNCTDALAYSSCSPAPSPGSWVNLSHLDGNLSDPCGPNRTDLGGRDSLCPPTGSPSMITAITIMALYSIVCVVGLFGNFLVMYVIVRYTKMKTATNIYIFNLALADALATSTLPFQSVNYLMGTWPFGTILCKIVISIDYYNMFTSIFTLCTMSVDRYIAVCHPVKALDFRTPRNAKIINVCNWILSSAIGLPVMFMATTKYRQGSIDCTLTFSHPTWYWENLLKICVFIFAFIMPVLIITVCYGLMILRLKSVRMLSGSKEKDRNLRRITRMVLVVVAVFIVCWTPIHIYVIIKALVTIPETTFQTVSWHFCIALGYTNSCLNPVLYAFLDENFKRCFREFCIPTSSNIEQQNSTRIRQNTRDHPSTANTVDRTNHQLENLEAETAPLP
structure (smiles),measurement,setting,value
CC(C(=O)O)c1ccc(-c2ccccc2)c(F)c1 (centres undefined) [FLURBIPROFEN],AC50,[1],> 30 µM
same,AC50,Glucocorticoid receptor,> 30 µM
same,AC50,Prothrombin,> 30 µM
same,AC50,Adenosine receptor A3,> 30 µM
same,AC50,[2],> 30 µM
same,AC50,Mu-type opioid receptor,> 30 µM
same,AC50,[3],> 30 µM
CN1CCN(C2=Nc3ccccc3Oc3ccc(Cl)cc32)CC1 [LOXAPINE],AC50,[1],> 30 µM
same,AC50,Glucocorticoid receptor,> 30 µM
same,AC50,Prothrombin,> 30 µM
same,AC50,Adenosine receptor A3,27.4 µM
same,AC50,[2],0.482 µM
same,AC50,Mu-type opioid receptor,8.61 µM
same,AC50,[3],> 30 µM
COc1ccc(CN(CCN(C)C)c2ccccn2)cc1 [PYRILAMINE],AC50,[1],> 30 µM
same,AC50,Prothrombin,> 30 µM
same,AC50,Adenosine receptor A3,> 30 µM
same,AC50,[2],> 30 µM
same,AC50,Mu-type opioid receptor,9.05 µM
same,AC50,[3],> 30 µM
c1ccc2c(c1)CCc1ccccc1N2C1CN2CCC1CC2 (centres undefined) [QUINUPRAMINE],AC50,[1],> 30 µM
same,AC50,Prothrombin,> 30 µM
same,AC50,Adenosine receptor A3,> 30 µM
same,AC50,[2],4.32 µM
same,AC50,Mu-type opioid receptor,1.84 µM
same,AC50,[3],> 30 µM
C[C@H](Cc1cc2c(c(C(N)=O)c1)N(CCCO)CC2)NCCOc1ccccc1OCC(F)(F)F [SILODOSIN],AC50,[1],> 30 µM
same,AC50,Prothrombin,> 30 µM
same,AC50,Adenosine receptor A3,> 30 µM
same,AC50,[2],> 30 µM
same,AC50,Mu-type opioid receptor,3.34 µM
same,AC50,[3],> 30 µM
CC1=CCC(C(C)(C)O)CC1O (centres undefined) [SOBREROL],AC50,[1],> 30 µM
same,AC50,Prothrombin,> 30 µM
same,AC50,Adenosine receptor A3,> 30 µM
same,AC50,[2],> 30 µM
same,AC50,Mu-type opioid receptor,> 30 µM
same,AC50,[3],> 30 µM
CCOC(=O)N1CSC[C@H]1C(=O)O [TELMESTEINE],AC50,[1],> 30 µM
same,AC50,Prothrombin,> 30 µM
same,AC50,Adenosine receptor A3,> 30 µM
same,AC50,[2],> 30 µM
same,AC50,Mu-type opioid receptor,> 30 µM
same,AC50,[3],> 30 µM
